Experimental data taken from US9803002B2, “Anti-wall teichoic antibodies and conjugates” (Genentech, Inc., priority 2013, dated 2017).
Values after ≈ are worked out from the molar mass of the structure shown. Read-outs that look alike come from different tables or passages of the source. The star is where a group is joined. Propanoyl(3-maleimido) = O=C1C=CC(=O)N1CCC(=O)*

Tests used:
[1] = biological target: T1, staphopain B (Staphylococcus aureus, UniProt P0C1S6); format: biochemical; conditions: for Percent cleavage pH 7.2, Staphopain B: PBS pH 7.2, 2 hours at 37° C.; for Percent cleavage pH 7.2, Staphopain B / Cleavage product, Staphopain B: LC-MS
T1 construct: purchased Sigma-Aldrich S3951
T1 sequence (P0C1S6 220-393): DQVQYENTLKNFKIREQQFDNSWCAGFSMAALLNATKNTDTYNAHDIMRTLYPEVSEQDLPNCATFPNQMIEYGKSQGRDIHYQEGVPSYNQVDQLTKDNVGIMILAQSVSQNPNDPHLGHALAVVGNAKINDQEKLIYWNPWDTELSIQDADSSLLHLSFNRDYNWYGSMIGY
Method: Cleavage assays with purified proteases were performed by incubating 5 uM of the thioFAB conjugate with 50 nM protease in a final volume of 100 ul. Assays were either performed in PBS pH 7.2, 4 mM L-Cys, 2.5 mM EDTA or 100 mM Sodium Citrate pH 5, 100 mM NaCl, 4 mM L-Cys, 2.5 mM EDTA. Samples were incubated for 2 hours at 37° C. At 2 hours, cleavage reactions were quenched by diluting 1:1 with 1% TFA. Samples were subsequently run on LC-MS to determine percent linker cleavage. Percent cleavage was determined by integrating the A280 chromatograms of the cleaved and intact species. The antibiotic or chromophore moieties added on the C-terminus of the linkers add significant hydrophobicity, such that thioFAB with intact linkers and thioFAB with cleaved linkers are baseline resolved.
At 2 hours, cleavage reactions were quenched by diluting 1:1 with 1% TFA. Samples were subsequently run on LC-MS to determine percent linker cleavage.

[2] = biological target: human cathepsin B (Homo sapiens, UniProt P07858); assay: Linker cleavage assay with purified protease; format: biochemical; conditions: for Percent cleavage pH 7.2, Cathepsin B: PBS pH 7.2, 2 hours at 37° C.; for Percent cleavage pH 7.2, Cathepsin B / Cleavage product, Cathepsin B: LC-MS
Method: The experimental mal-peptide-QSY7 linkers were conjugated to THIOFAB S4497 to evaluate the cleavability of these linkers.
Fractions from each chromatography step were analyzed for activity, and 100 ul was used regardless of protein concentration. Samples were incubated overnight at 37° C. and subsequently analyzed by LC-MS to identify fractions where protease cleavage of the linker-antibiotic had occurred. Pooled active fractions from the Q Sepharose FF chromatography were measured to have a total protein concentration of 14 mg/ml. 200 μg of the pool was diluted to 2 mg/ml in PBS and was incubated with and without N-ethylmaleimide (NEM, Sigma) at a concentration of 0.1 mM final. Samples were incubated at room temperature for 1 hour. […] At 2 hours, samples were analyzed by LC-MS to identify whether protease cleavage of the linker-antibiotic had occurred. About 50 ul of the active fractions from SEC were incubated with 0.1 mM Alexa Fluor 488 C5 maleimide (Invitrogen) for 1 hour regardless of protein concentration for labeling. Cleavage assays with purified proteases were performed by incubating 5 uM of the thioFAB conjugate with 50 nM protease in a final volume of 100 ul. Assays were either performed in PBS pH 7.2, 4 mM L-Cys, 2.5 mM EDTA or 100 mM Sodium Citrate pH 5, 100 mM NaCl, 4 mM L-Cys, 2.5 mM EDTA. Samples were incubated for 2 hours at 37° C. At 2 hours, cleavage reactions were quenched by diluting 1:1 with 1% TFA. Samples were subsequently run on LC-MS to determine percent linker cleavage. Percent cleavage was determined by integrating the A280 chromatograms of the cleaved and intact species. The antibiotic or chromophore moieties added on the C-terminus of the linkers add significant hydrophobicity, such that thioFAB with intact linkers and thioFAB with cleaved linkers are baseline resolved.
(§2) 5 μM of thioFAB 4497 MP-LAFGA-QSY7(“core peptide” disclosed as SEQ ID NO: 135) and thioFAB 4497 MP-LAFAA-QSY7 (“core peptide” disclosed as SEQ ID NO: 136) (FIG. 30) were incubated with 50 nM of protease in PBS pH 7.2, 4 mM L-Cys, 2.5 mM EDTA for 2 hours at 37° C. At 2 hours, cleavage reactions were quenched by diluting 1:1 with 1% TFA. Samples were subsequently run on LC-MS to determine percent linker cleavage.

[3] = biological target: T2, staphopain A (Staphylococcus aureus, UniProt P81297); format: biochemical; conditions: for Percent cleavage pH 7.2, Staphopain A: PBS pH 7.2, 2 hours at 37° C.; for Percent cleavage pH 7.2, Staphopain A / Cleavage product, Staphopain A: LC-MS
T2 sequence (P81297 215-388): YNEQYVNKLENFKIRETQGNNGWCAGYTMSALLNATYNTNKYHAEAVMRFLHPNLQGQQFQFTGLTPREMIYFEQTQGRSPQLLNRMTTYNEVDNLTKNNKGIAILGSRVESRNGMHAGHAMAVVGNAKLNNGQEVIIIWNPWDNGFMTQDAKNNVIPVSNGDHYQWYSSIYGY
Method: Fractions from each chromatography step were analyzed for activity, and 100 ul was used regardless of protein concentration. Samples were incubated overnight at 37° C. and subsequently analyzed by LC-MS to identify fractions where protease cleavage of the linker-antibiotic had occurred. Pooled active fractions from the Q Sepharose FF chromatography were measured to have a total protein concentration of 14 mg/ml. 200 μg of the pool was diluted to 2 mg/ml in PBS and was incubated with and without N-ethylmaleimide (NEM, Sigma) at a concentration of 0.1 mM final. Samples were incubated at room temperature for 1 hour. […] At 2 hours, samples were analyzed by LC-MS to identify whether protease cleavage of the linker-antibiotic had occurred. About 50 ul of the active fractions from SEC were incubated with 0.1 mM Alexa Fluor 488 C5 maleimide (Invitrogen) for 1 hour regardless of protein concentration for labeling. Cleavage assays with purified proteases were performed by incubating 5 uM of the thioFAB conjugate with 50 nM protease in a final volume of 100 ul. Assays were either performed in PBS pH 7.2, 4 mM L-Cys, 2.5 mM EDTA or 100 mM Sodium Citrate pH 5, 100 mM NaCl, 4 mM L-Cys, 2.5 mM EDTA. Samples were incubated for 2 hours at 37° C. At 2 hours, cleavage reactions were quenched by diluting 1:1 with 1% TFA. Samples were subsequently run on LC-MS to determine percent linker cleavage. Percent cleavage was determined by integrating the A280 chromatograms of the cleaved and intact species.
as §2
5 μM of AAC-193 was incubated with 50 nM of protease in either PBS pH 7.2, 4 mM L-Cys, 2.5 mM EDTA or 100 mM Sodium Citrate pH 5, 100 mM NaCl, 4 mM L-Cys, 2.5 mM EDTA for 2 hours at 37° C. At 2 hours, cleavage reactions were quenched by diluting 1:1 with 1% TFA. Samples were subsequently run on LC-MS to determine percent linker cleavage.

[4] = tested on: MRSA (NRS384 strain of USA300); assay: MIC determinations for extracellular bacteria; conditions: Staphylococcus aureus, read-out: Extracellular MRSA MIC
Method: Dilutions of the antibiotic were made in quadruplicate in 96 well culture dishes. MRSA (NRS384 strain of USA300) was taken from an exponentially growing culture and diluted to 1×10^4 CFU/mL. Bacteria was cultured in the presence of antibiotic for 18-24 hours with shaking at 37° C. and bacterial growth was determined by reading the Optical Density (OD) at 630 nM. The MIC was determined to be the dose of antibiotic that inhibited bacterial growth by >90%.

[5] = tested on: MRSA (NRS384 strain of USA300); assay: MIC determinations for intracellular bacteria inside mouse peritoneal macrophages; format: cell-based, Staphylococcus aureus; conditions: for MIC: Staphylococcus aureus, read-out: Intracellular MRSA MIC
[6] = clinically achievable serum levels; cited from earlier work
[7] = tested on: MRSA (USA300); assay: Intravenous infection model in CB17.SCID mice reconstituted with human IgG; format: in vivo, mouse
Method: To confirm that the AAC would be effective in the presence of competing human antibodies in vivo, the in vivo infection model was modified to generate mice that express normal levels of human IgG in the serum. […] Four days after infection the bacterial load in the kidneys (FIG. 10C) was assessed.
Efficacy of the AAC was compared with that of treatment with vancomycin, the current standard of care treatment for MRSA infections. […] CB17.SCID mice were reconstituted with human IgG using a dosing regimen optimized to yield constant levels of at least 10 mg/mL of human IgG in serum.
(§1) 7 week old female mice were used for all in vivo experiments and infections were carried out by intravenous injection into the tail vein. A/J mice (Jackson Lab) were infected with a dose of 2×10^6 CFU. […] For studies examining the role of competing human IgG (SCID IVIG model), CB17.SCID mice (Charles River Laboratories, Hollister, Calif.) were reconstituted with GammaGard S/D IGIV Immune Globulin (ASD Healthcare, Brooks Ky.) using a dosing regimen optimized to achieve constant serum levels of >10 mg/mL of human IgG. IGIV was administered with an initial intravenous dose of 30 mg per mouse followed by a second dose of 15 mg/mouse by intraperitoneal injection after 6 hours, and subsequent daily dosings of 15 mg per mouse by intraperitoneal injection for 3 consecutive days. […]

[8] = tested on: USA300; assay: Pre-treatment in intravenous infection model in Balb/c mice; format: in vivo, mouse; conditions: antibodies 50 mg/Kg IV 30 minutes prior to infection; vancomycin 110 mg/Kg twice daily IP; day 4
Method: Balb/c mice were given a single dose of vehicle control (PBS) or 50 mg/Kg of antibodies by intravenous injection 30 minutes prior to infection with 2×10^7 CFU of USA300. […] Control mice were given twice daily treatments with 110 mg/Kg of vancomycin by intraperitoneal injection (Vanco). All mice were sacrificed on day 4 post-infection, and the total number of surviving bacteria in kidneys (2 kidneys pooled) was determined by plating.
as §1, with “days. Mice were infected 4 hours after the first dose of IGIV with 2×10^7 CFU of MRSA diluted in phosphate buffered saline by intravenous injection.” for “days.”

[9] = tested on: MRSA; assay: Transfer of infection from peritoneal cells to MG63 osteoblasts in the presence of vancomycin; format: cell-based, Staphylococcus aureus; conditions: 5 μg/mL of vancomycin
Method: 6-8 week old female A/J mice (JAX™ Mice, Jackson Laboratories) were infected with 1×10^8 CFU of the NRS384 strain of USA300 by peritoneal injection. […] Peritoneal cells were then washed 2× in ice cold HB buffer. […] Free MRSA from the primary infection was stored overnight at 4° C. in Phosphate Buffered Saline Solution as a control for extracellular bacteria that were not subject to neutrophil killing.
Osteoblasts were plated in 24 well tissue culture plates and cultured to obtain a confluent layer. On the day of the experiment, the osteoblasts were washed once in RPMI (without supplements). MRSA or infected peritoneal cells were diluted in complete RPMI-10 and vancomycin was added at 5 μg/mL immediately prior to infection. Peritoneal cells were added to the osteoblasts at 1×10^6 peritoneal cells/mL. A sample of the cells was lysed with 0.1% triton-x to determine the actual concentration of live intracellular bacteria at the time of infection.
To generate a pool of intracellular S. aureus, A/J mice were infected with MRSA and infected peritoneal cells were taken 1 day post infection. […] The total number of surviving intracellular bacteria in each well was determined by plating cell lysates on agar plates. […]

[10] = tested on: MRSA; conditions: TSB media; vancomycin 2 and 20 μg/mL, rifampin 0.02 and 0.2 μg/mL
[11] = tested on: MRSA; assay: Intravenous infection model in CB17.SCID mice; format: in vivo, mouse; conditions: 50 mg/Kg AAC or 0.5 mg/Kg antibiotic, kidneys 4 days after infection
Method: Mice were sacrificed 4 days after infection and the total number of surviving bacteria per mouse (2 kidneys pooled) was determined by plating.
as §1, with “days. Mice were infected 4 hours after the first dose of IGIV with 2×10^7 CFU of MRSA diluted in phosphate buffered saline by intravenous injection. Mice that received vancomycin were treated with twice daily intraperitoneal injections of 100 mg/Kg of vancomycin starting between 6 and 24 hours post infection for the duration of the study.” for “days.”

[12] = MRSA inside mouse peritoneal macrophages, antibiotics added 1 day after infection, survival assessed 24 hours later
[13] = 5 μM conjugate, 50 nM protease, Sodium Citrate pH 5, 2 hours at 37° C.
[14] = listed as MP-LAFG-piperazino-rifamycin

Row | Compound | Percent cleavage pH 7.2, Staphopain B ([1]; 5 μM conjugate, 50 nM protease) [%] | Cleavage product, Staphopain B [1] | Percent cleavage pH 7.2, Cathepsin B ([2]; 5 μM conjugate, 50 nM protease) [%] | Cleavage product, Cathepsin B [2] | Percent cleavage pH 7.2, Staphopain A ([3]; 5 μM conjugate, 50 nM protease) [%] | Cleavage product, Staphopain A [3] | MIC [4] [µg/mL] | Serum Cmax [6] [ng/mL] | MIC [5, 12] [µg/mL] | also measured
1 | MP-LAFGA-QSY7: maleimido-propionic-Leu-Ala-Phe-Gly-Ala linker with QSY7 as antibiotic surrogate, tested conjugated to thioFAB S4497 ({Propanoyl(3-maleimido)}-LAFGA-QSY7; also: conjugated to thioFAB S4497) | 100 | A-QSY7 | 100 | A-QSY7 | 38 | A-QSY7 |  |  |  | 
2 | CC(=O)NC[C@H]1CN(c2ccc(N3CCOCC3)c(F)c2)C(=O)O1 [Linezolid] |  |  |  |  |  |  | 0.3 (≈ 0.889 µM) | 10000 |  | MIC ([5]; 24 h): > 20 µg/mL
3 | CN[C@H](CC(C)C)C(=O)N[C@H]1C(=O)N[C@@H](CC(N)=O)C(=O)N[C@H]2C(=O)N[C@H]3C(=O)N[C@H](C(=O)N[C@H](C(=O)O)c4cc(O)cc(O)c4-c4cc3ccc4O)[C@H](O)c3ccc(c(Cl)c3)Oc3cc2cc(c3O[C@@H]2O[C@H](CO)[C@@H](O)[C@H](O)[C@H]2O[C@H]2C[C@](C)(N)[C@H](O)[C@H](C)O2)Oc2ccc(cc2Cl)[C@H]1O [Vancomycin] |  |  |  |  |  |  | 1 (≈ 0.69 µM) | 10000 to 40000 | > 100 | efficacy in kidneys (FIG. 11A) ([7]; AAC single dose 50 mg/Kg day 1, vancomycin 100 mg/Kg twice daily, day 4): failed to clear the infection; reduction of bacterial loads ([7]; twice-daily 100 mg/Kg, treatment initiated more than 1 day post infection): about 50 fold; effect of pre-treatment on bacterial loads in kidneys [8]: cleared the infection in all of the mice tested; intracellular bacteria in MG63 wells 1 day post infection ([9]; similar dose of free (extracellular) MRSA): 375 intracellular bacteria; intracellular bacteria in MG63 wells 1 day after infection ([9]; wells infected with 3×10^4 intracellular bacteria (peritoneal cells)): 8,750 intracellular bacteria; bacteria remained viable during the first two hours of antibiotic treatment [10]: 90%; loss in viable bacteria by 5 hours [10]: 100 fold
4 | CO[C@H]1/C=C/O[C@@]2(C)Oc3c(C)c(O)c4c(O)c(c(/C=N/N5CCN(C)CC5)c(O)c4c3C2=O)NC(=O)/C(C)=C\C=C\[C@H](C)[C@H](O)[C@@H](C)[C@@H](O)[C@@H](C)[C@H](OC(C)=O)[C@@H]1C [Rifampicin] |  |  |  |  |  |  | 0.004 (≈ 0.00486 µM) | 20000 | > 20 | bacteria remained viable during the first two hours of antibiotic treatment [10]: 90%; loss in viable bacteria by 5 hours [10]: 100 fold
5 | CCCCCCCCCC(=O)N[C@@H](Cc1c[nH]c2ccccc12)C(=O)N[C@H](CC(N)=O)C(=O)N[C@@H](CC(=O)O)C(=O)N[C@@H]1C(=O)NCC(=O)N[C@@H](CCCN)C(=O)N[C@@H](CC(=O)O)C(=O)N[C@H](C)C(=O)N[C@@H](CC(=O)O)C(=O)NCC(=O)N[C@H](CO)C(=O)N[C@@H]([C@H](C)CC(=O)O)C(=O)N[C@@H](CC(=O)c2ccccc2N)C(=O)O[C@@H]1C [Daptomycin] |  |  |  |  |  |  | 4 (≈ 2.47 µM) | 80000 | > 100 | 
6 | MP-LAFAA-QSY7: maleimido-propionic-Leu-Ala-Phe-Ala-Ala linker with QSY7 as antibiotic surrogate, tested conjugated to thioFAB S4497 ({Propanoyl(3-maleimido)}-LAFAA-QSY7; also: conjugated to thioFAB S4497) | 100 | A-QSY7 | 100 | A-QSY7, and QSY7 | 23 | A-QSY7 |  |  |  | 
7 | dimethylpiperidyl benzoxazino rifamycin [dimethyl-pipBOR] |  |  |  |  |  |  |  |  |  | efficacy when given 1 day post infection [11]: failed to clear the infection; killing intracellular MRSA when tested as free antibiotics [5]: more potent than rifampicin
8 | CO[C@H]1/C=C/O[C@@]2(C)Oc3c(C)c(O)c4c(=O)c(c5oc6cc(N7CCN(C(=O)OCc8ccc(NC(=O)CNC(=O)[C@H](Cc9ccccc9)NC(=O)[C@H](C)NC(=O)[C@H](CC(C)C)NC(=O)CCN9C(=O)C=CC9=O)cc8)CC7)cc(O)c6nc-5c4c3C2=O)NC(=O)/C(C)=C\C=C\[C@H](C)[C@H](O)[C@@H](C)[C@@H](O)[C@@H](C)[C@H](OC(C)=O)[C@@H]1C [LA-104, MP-LAFG-PABC-(piperazinoBOR)] | 100 | piperazino- | 64 | Phe-Gly-piperazino-rifamycin | 46 | piperazino- |  |  |  | Percent cleavage pH 5, Staphopain B [1, 13]: 100%; Cleavage product, Staphopain B [1, 14]: free rifamycin; Percent cleavage pH 5, Cathepsin B [2, 13]: 100%; Percent cleavage pH 5, Staphopain A [3, 13]: 100%; Cleavage product, Staphopain A [3, 14]: free rifamycin
9 | piperidyl benzoxazino rifamycin [pipBOR] |  |  |  |  |  |  |  |  |  | killing intracellular MRSA when tested as free antibiotics [5]: more potent than rifampicin
